{"source": "patent US20210116467A1", "about": "“DIABETES-RELATED BIOMARKERS AND TREATMENT OF DIABETES-RELATED CONDITIONS” (priority 2015, published 2021)"}
{"system": "GLP1", "assay": "GLP1 production induced by treatment with bile acids (immunofluorescence staining of TGR5 and GLP1 in CCL-241 cells)", "format": "cell-based", "settings": "CCL-241 human small intestinal normal epithelial cells; 100 μM bile acid; compared to wild type (WT) and DMSO controls; FIG. 13", "experimental": "Several bile acids were tested for their ability to increase production of GLP-1. Without being bound by theory, the inventor believes that compounds which increase the production of GLP-1 provide an anti-diabetic effect.\nCCL-241, a human small intestinal normal epithelial cell were treated with 100 μM of different bile acids and compared to that of wild type (WT) and DMSO treatment as controls. The expression of TGR5 and GLP1 were detected by Immunofluorescence staining."}
{"smiles": "O=C(O)C(Cl)(Cl)Cl", "note": "[TCA]", "GLP1-promotion effect (expression of GLP1 detected by immunofluorescence staining)": "substantial GLP-1 promotion effect"}
{"smiles": "C[C@H](CCC(=O)NCC(=O)O)[C@H]1CC[C@H]2[C@@H]3C[C@H](O)[C@@H]4C[C@H](O)CC[C@]4(C)[C@H]3CC[C@]12C", "note": "[GHDCA, Glycohyodeoxycholic acid]", "GLP1-promotion effect (expression of GLP1 detected by immunofluorescence staining)": "strongest GLP1-promotion effect"}
{"smiles": "C[C@H](CCC(=O)O)[C@H]1CC[C@H]2[C@@H]3CC[C@@H]4C[C@H](O)CC[C@]4(C)[C@H]3C[C@H](O)[C@]12C", "note": "[DCA]", "GLP1-promotion effect (expression of GLP1 detected by immunofluorescence staining)": "substantial GLP-1 promotion effect"}
{"smiles": "C[C@H](CCC(=O)O)[C@H]1CC[C@H]2[C@@H]3[C@H](O)[C@H](O)[C@@H]4C[C@H](O)CC[C@]4(C)[C@H]3CC[C@]12C", "note": "[HCA, Hyocholic acid]", "GLP1-promotion effect (expression of GLP1 detected by immunofluorescence staining)": "strongest GLP1-promotion effect"}
{"smiles": "C[C@H](CCC(=O)NCCS(=O)(=O)[O-])[C@H]1CC[C@H]2[C@@H]3C[C@H](O)[C@@H]4C[C@H](O)CC[C@]4(C)[C@H]3CC[C@]12C.[Na+]", "note": "[THDCA, Taurohyodeoxycholic acid]", "GLP1-promotion effect (expression of GLP1 detected by immunofluorescence staining)": "strongest GLP1-promotion effect"}
{"smiles": "C[C@H](CCC(=O)O)[C@H]1CC[C@H]2[C@@H]3C[C@H](O)[C@@H]4C[C@H](O)CC[C@]4(C)[C@H]3CC[C@]12C", "note": "[HDCA, Hyodeoxycholic acid]", "GLP1-promotion effect (expression of GLP1 detected by immunofluorescence staining)": "strongest GLP1-promotion effect"}
